Among the data in the METLIN SMRT retention time set (Domingo-Almenara et al. 2019) are RP-LC retention time values, retold here.

Molecules are shown by their SMILES.

The nature of this data set: gradient 5% acetonitrile 3 min, to 50% in 2 min, to 85% in 15 min, held 3 min, 100 µL/min. The settings on record: column: Zorbax Extend-C18 2.1 x 50 mm; eluents: water / acetonitrile, 0.1% formic acid. A digest of the protocol: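 Pure standards were run in mixtures of ~100 molecules by HPLC coupled to a quadrupole time-of-flight mass spectrometer. The column was a Zorbax Extend-C18 (2.1 × 50 mm, 1.8 μm) at 100 μL/min, with water and acetonitrile each containing 0.1% formic acid, in positive and negative ionization mode. Dead and dwell volumes were 40 μL and 900 μL. Retention time was taken from computationally picked adduct peaks, each manually inspected, with data collected over 3 months.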
`CC(C)Cn1c(=O)c2cc(C(=O)NC(C)c3ccccc3)nn2c2ccccc21` (stereo not given) registered an RP-LC retention time of 1090 s.
Regarding `CCN1CCC2(CC1)OC(=O)C(C)=C2C(=O)NCCCc1ccccc1`, the RP-LC retention time stood at 654 s.
The result for `O=C(c1ccc2c(c1)OCO2)N1CCC2(CC1)NC(=O)N(Cc1ccccc1Cl)C2=O` reads 838 s; that for `CC(=O)Nc1ccc(CCc2nc3ccc(C(=O)NCCC(C)C)cc3[nH]2)cc1`, 630 s; that for `CC(=O)N1CCc2sc(C(=O)NCc3ccc4c(c3)OCO4)cc2C1`, 682 s.
The result for `COc1cccc(-n2ccc(=O)c(-c3nc(-c4ccc(F)cc4)no3)n2)c1` reads 898 s; that for `O=C(O)c1cccc2c1C(=O)c1cccc3snc-2c13`, 804 s; that for `Cc1nnc(-c2ccc3ccn(CC(=O)N4CCN(c5cc(Cl)ccc5C)CC4)c3c2)o1`, 1020 s.
Next, `CCCC(=O)N1CCc2c([nH]c3ccccc23)C1c1ccc(OC)cc1` (stereo not given): 720 s; `CCn1c(N2CCCC(C(=O)NCc3ccco3)C2)cc(=O)n(C)c1=O` (stereo not given): 731 s.
`COc1ccc2c(=O)c(Oc3ccc(C(=O)Nc4cccnc4)cc3)coc2c1`: the RP-LC retention time came out at 605 s.
With `CCCn1c(=O)c(C)nc2cc(-c3noc(COc4ccc(OC)cc4)n3)ccc21`, the RP-LC retention time came to 1040 s.
Next, `COC(=O)c1ccccc1NC(=O)CSc1nc(C)cc(N2CCOCC2)n1`: 603 s; `Cc1nc2cc(-c3noc(-c4ccc(C#N)cc4)n3)ccc2n(C2CCCC2)c1=O`: 691 s.
In the case of `Cc1ccc(S(=O)(=O)N(C)CC2CCOC2)cc1F` (stereo not given), the RP-LC retention time came to 849 s.
For the compound `CCOC(=O)Cc1csc(NC(=O)CSc2nc(C)cc(C)n2)n1`, the RP-LC retention time was 728 s.
In turn, `Cc1ccoc1C(=O)Nc1ccc(C(N)=O)cc1` showed an RP-LC retention time of 629 s.
In the case of `COCCNC(=O)CCCn1c(=O)c2cccn2c2ccccc21`, the RP-LC retention time stood at 680 s.
The result for `Fc1cccc(Cc2noc(-c3nc(-c4ccccc4)no3)n2)c1` reads 1160 s.
The result for `CCCn1c(=O)c(C)nc2cc(-c3noc(-c4ccc5c(c4)OCO5)n3)ccc21` reads 1150 s; that for `COc1ccc(CCC(=O)NCC(=O)Nc2nc3ccccc3[nH]2)cc1`, 639 s; that for `O=C(NCCCN1CCOCC1)C(=O)Nc1ccc(Br)cc1F`, 625 s.
The result for `CN(CC1(C)CCOCC1)C(=O)NCc1ccco1` reads 649 s; that for `Cc1ccccc1NS(=O)(=O)c1cc(-c2[nH]ncc2C(=O)N2CCCCC2)oc1C`, 755 s.
The compound `COc1ccc(NC(=O)Cn2nc(C(F)(F)F)c(Br)c2C)cc1OC` gave an RP-LC retention time of 958 s.
As for `O=c1ccc(N2CCC(NS(=O)(=O)c3cccs3)C2)nn1CCOc1ccccc1` (stereo not given), the RP-LC retention time turned out to be 801 s.
`CCOC(=O)C(C)Sc1ccc2nnc(CCNC(=O)c3ccc(OC)cc3)n2n1` (stereo not given): the RP-LC retention time was found to be 647 s.
With `O=C(COc1ccc(Cl)cc1)Nc1cccc2c1C(=O)NC2=O`, the RP-LC retention time was 854 s.
`Cc1ccc(-c2csc(NC(=O)Cc3csc(COc4ccc(Cl)c(C)c4)n3)n2)cc1` gave an RP-LC retention time of 1310 s.
The result for `CCCOc1nc2ccccc2nc1N1CCCC(C(=O)Nc2ccccc2CC)C1` (stereo not given) reads 1320 s; that for `CC(C)Oc1ccc(CNC(=O)C2CCN(c3nnc4ccccn34)CC2)cc1`, 685 s.
With `c1cc2c(cc1-c1noc(C3CCCCC3)n1)nnn2CCN1CCOCC1`, the RP-LC retention time worked out at 711 s.
Next, `Cc1ccc(S(=O)(=O)N2CCCN(c3ccc(=O)n(-c4ccccc4)n3)CC2)cc1C`: 912 s; `Cc1nc2ccn(Cc3cccs3)c(=O)c2cc1C(=O)NC1CCCCC1`: 801 s.
Next, `Cc1ccc(CNC(=O)c2ncn3c2C(=O)N(C2CC2)C(C)(C(=O)NCc2cccc(C)c2)C3)cc1` (stereo not given): 827 s.
In turn, `COCCN1C(=O)CCc2cc(NS(=O)(=O)c3ccc(F)cc3F)ccc21` registered an RP-LC retention time of 723 s.
`CN(C)c1ccc(C(=O)N2CCCC2COc2ccc(C(=O)N3CCCC3)cc2)cc1` (stereo not given) gave an RP-LC retention time of 748 s.
Next, `CC(C)(C)C(=O)N1CCC(F)(c2nc(-c3ccncc3)no2)CC1`: 802 s.
The result for `O=C(Nc1ccccc1F)C1CCc2sc(C(=O)N3CCCC3)cc2C1` (stereo not given) reads 761 s; that for `O=C(c1ccc([N+](=O)[O-])o1)N1CCN(Cc2csc(-c3ccccc3)n2)CC1`, 601 s.
The compound `COc1ccc(Cl)cc1NC(=O)Cn1ccc2c(=O)n(C)c(=O)n(C)c21` yielded an RP-LC retention time of 722 s.
Next, `CCCn1ccc2sc(C)c(C(=O)NCc3cccc(Br)c3)c2c1=O`: 998 s; `CC(C)Oc1ccc(-c2noc(Cn3c(=O)n(-c4ccccc4F)c(=O)c4sccc43)n2)cc1`: 1090 s.
Next, `COC1CCC12CCN(C(=O)c1sc(C)nc1C)CC2` (stereo not given): 728 s; `Cn1c(=O)n(C)c2cc(S(=O)(=O)c3ccccc3)c(NC(=O)c3ccccc3F)cc21`: 878 s; `O=C(Nc1cc(-c2ccsc2)no1)c1cccc(F)c1`: 951 s.
The result for `O=C(Cn1c(CN2CCCCC2)nc2ccccc21)N1CCOCC1` reads 583 s.
`Cc1ccc(/C=C2\CNC/C(=C\c3ccc(C)cc3)C2=O)cc1`: the RP-LC retention time came out at 734 s.
In the case of `Cc1nnc(NC(=O)CN(C)c2nc3c(Cl)cccc3s2)s1`, the RP-LC retention time came out at 742 s.
Compound `O=C(CN1CCN(Cc2cccc(Cl)c2)C1=O)NCCc1cccs1` gave an RP-LC retention time of 823 s.
The result for `CCOC(=O)c1ccc(NC(=O)Nc2cccs2)cc1` reads 888 s; that for `O=C(NCc1ccccc1Cl)c1nnc(-c2ccc(S(=O)(=O)N3CCOCC3)cc2)o1`, 888 s; that for `COc1ccc(C)cc1NC(=O)Cn1nc2cc(C)nc(Nc3ccc(C)cc3)n2c1=O`, 1150 s.
As for `Cc1ccc(-c2noc(C3CCCN3S(=O)(=O)c3ccc4c(c3)CCC4)n2)cc1` (stereo not given), the RP-LC retention time came out at 1280 s.
Next, `COc1ccc(OC)c(S(=O)(=O)N2CCCC(C(=O)NCCc3ccccc3)C2)c1` (stereo not given): 854 s.
The result for `O=C(Cc1cccs1)Nc1nnc(SCc2ccc([N+](=O)[O-])cc2)s1` reads 861 s.
`O=C(NCc1ccco1)c1scc(-c2ccc(F)cc2)c1-n1cccc1` displayed an RP-LC retention time of 1110 s.
As to `COc1ccccc1C(=O)N1CCN(c2nc3ccccc3n(C)c2=O)CC1`, the RP-LC retention time is 830 s.
Next, `Cc1nc(C)c(C(=O)Nc2cccc(Cl)c2C)o1`: 731 s.
The result for `O=C(NCc1ccccc1F)C1CCN(c2cnc3nccnc3c2)CC1` reads 689 s.
